“And” between values parts separate entries of the source, which are not always exact repeats. Identical values can stand only once. “Also recorded” adds a separate entry of the source. Like-named read-outs stand apart in the source and are kept apart here.
Assays:
[1] = tested on: mNotch1ΔE fused to an HiBiT tag; experiment: HiBit reporter assay; type: cell-based, mouse; design: key to protein stability: + indicates that the compound had an effect; -: − indicates that there was no significant effect in the respective assay; details: for protein stability: summary Fig. 8E
Protocol: The Notch1ΔE construct used to generate the Notch reporter cell line (see above) was first cloned in frame into the pBiT3.2-C [TK/HiBiT/Blast] Vector (Promega) and then stably introduced into HEK293T wild type cells, using Lipofectamine transfection, as described. Analogous to the Notch reporter cell line, Blasticidin was used as a selection marker (0.1 mg/ml) and stable cell lines with robust luciferase signals were generated. […] A clone (#D2) with an empty HiBit vector stably integrated was used as control.
20 µl containing 4,000 cells were seeded on 384-well pre-spotted compound plates (Greiner, cat #781080). Cells were incubated for 24 h and viability was determined using CellTiter-Fluor (Promega, cat # G6080), following the manufacturer’s instructions. Next, cells were subjected to the HiBit assay according to the manufacturer’s instructions (Promega, cat # N3030). Prior to cell lysis, the tissue culture plates were allowed to cool down to room temperate. Fluorescence and luminescence signals were recorded using a SpectraMax i3 (Molecular devices) and signals were read at different time-points to determine optimal signal stability. Cells cultivated only with DMSO were used as a reference to determine effects of compounds. MG132, Bafilomycin A1 and the GSI RO4929097 served as additional controls. Celastrol was used to determine the assay window, and a minimum of two technical replicates were measured per assay.

[2] = tested on: Notch signalling; experiment: Notch reporter assay (12xCSL firefly luciferase / renilla luciferase, HEK293T Notch1ΔE reporter cell line clone #A1-11); type: cell-based; design: AUC Notch: scale not given here; details: for activity: 1,25µM; for AUC Notch: area under the 14-point dose-response curve; for concentrations associated with cytotoxicity (high dose-points removed): extended dose range, Supplemental Fig. 7B; for AUC 9p Notch reporter assay / AUC 14p Notch reporter assay: AUCs averaged when replicates available; for Bottom (Emax): Emax indicated independent from assay constraints, in % (unit assumed); for Notch assay: overview in comparison to compound C, Supplemental Fig. 9
How it was run: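 Compounds at two-fold concentration in 10 µl medium were brought to one-fold by adding 10 µl holding 4000 Notch reporter cells (clone #A1-11) per well of a 384-well plate. After 24 h, Promega dual-GLO firefly and renilla luciferase were read on a SpectraMaxi3. Dose-response curves were fitted with a log(inhibitor) vs. response variable-slope model.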

[3] = tested on: JURKAT cells; experiment: Growth inhibition, metabolic activity (CellTiter-Glo); type: cell-based; details: Homo sapiens, six days, read-out: approximated IC50, growth (metabolic activity)
Source text: (§1) We next investigated whether compounds A-E affected growth and viability of cell lines from T-cell acute lymphoblastic leukaemia (T-ALL) and breast cancer, two tumour types in which elevated Notch signalling has been implicated in tumorigenesis. […] When testing analogues of compounds B and C, five of the seven B analogues and one of the two C analogues produced dose–response curves and IC50s, which however were higher compared to the original hits (Supplemental Fig. 5A; IC50s are presented in Supplemental Table 6).
(§2) Compounds were spotted on white 384-well tissue culture plates (Greiner, cat #781080) using an Echo 525 Acoustic liquid handler (Labcyte). Cells were grown to 80% confluence, detached if required, counted and 20 µl containing 2000–4000 cells per well was then seeded in each well and cultivated for three (4,000 cells seeded) and six days (2,000 cells seeded). […] Luciferase activity (reading out metabolic activity) was determined using the CellTiter-Glo 2.0 kit (CTG, Promega, cat #G9242) following the manufacturer’s instructions and luminescence was measured on a SpectraMaxi3 or Varioscan plate reader (Molecular Devices, Thermofisher).

[4] = tested on: RPMI-8402 cells; experiment: as above; type: cell-based; details: Homo sapiens; RPMI-8402, six days; read-out: approximated IC50, growth (metabolic activity)
Source text: as §1, §2

[5] = Homo sapiens, HEK-293T, 14-point dose-response, Fig. 4, read-out: approximated IC50, Notch reporter assay
[6] = Homo sapiens, HEK-293T, 14-point, unit inferred, replicates averaged, read-out: approxiated IC50s 14p Notch reporter assay
[7] = Homo sapiens, HEK-293T, 14p Notch assay DR, bottom constrained to Emax of positive control DAPT, read-out: approximated IC50
[8] = Homo sapiens, HEK-293T, 14p Notch assay DR, bottom constrained to Emax of positive control RO4929097, read-out: approximated IC50
[9] = Homo sapiens, HEK-293T, 14p Notch assay DR, log10 value, bottom constrained to Emax of positive control DAPT, read-out: approximated LogIC50 (converted)
[10] = Homo sapiens, HEK-293T, 14p Notch assay DR, log10 value, bottom constrained to Emax of positive control RO4929097, read-out: approximated LogIC50 (converted)
[11] = Homo sapiens, HEK-293T, 10 µM, primary screen, 24 h, unit from Fig. 2 legend, read-out: Primary screen at 10 µM (Notch reporter signal)
[12] = Homo sapiens, HEK-293T, 10 µM, three-dose confirmation screen, unit from Fig. 2 legend, read-out: Hit confirmation at 10 µM (Notch reporter signal)
[13] = Homo sapiens, HEK-293T, 10 µM, sheet conf vs counter 10 µM, same values as 3-point DR confirmation screen, read-out: Confirmation screen
[14] = Homo sapiens, HEK-293T, 25 µM, Notch reporter 3-point dose-confirmation assay, sheet "conf vs counter 25 µM", read-out: Confirmation screen
[15] = Homo sapiens, HEK-293T, 3-point DR confirmation screen, Notch reporter assay, read-out: inhibitor ratio in % of DMSO in 3 point DR
[16] = 9p dose response, single replicates, read-out: approximated IC50s 9p Notch reporter assay
[17] = 14p dose response, single replicates, read-out: approximated IC50s 14p Notch reporter assay
[18] = Homo sapiens, HEK-293T, 10µM, 3-point DR confirmation screen, Notch reporter assay, read-out: inhibitor ratio in % of DMSO in 3 point DR
[19] = Homo sapiens, HEK-293T, 25µM, 3-point DR confirmation screen, Notch reporter assay, read-out: inhibitor ratio in % of DMSO in 3 point DR
[20] = Homo sapiens, HEK-293T, 9p dose response, averaged over replicates, read-out: 9p Notch reporter assay averaged IC50s
[21] = Homo sapiens, HEK-293T, 9p dose response, log10 of averaged IC50, read-out: 9p Notch reporter assay averaged IC50s (log) (converted)
[22] = Homo sapiens, HEK-293T, 14p Notch assay DR, log10 value, Notch inhibitor controls, no bottom constraint named, read-out: approximated LogIC50 (converted)
[23] = Homo sapiens, HEK-293T, 14p dose response, single replicates, read-out: approximated IC50s 14p Notch reporter assay
[24] = Homo sapiens, HEK-293T, 14p dose response, log10 of averaged IC50, read-out: 14p Notch reporter assay averaged IC50s (log) (converted)

Row | SMILES | IC50 [2, 5] [nM] | IC50 [2, 6] [nM] | IC50 [2, 7] [nM] | IC50 [2, 8] [nM] | IC50 [2, 9] [nM] | IC50 [2, 10] [nM] | IC50 [3] [nM] | protein stability [1] | activity at 10 µM [2, 11] [%] | activity at 10 µM [2, 12] [%] | activity at 10 µM [2, 13] [%] | activity at 25 µM [2, 14] [%] | activity [2, 15] [%] | AUC Notch ([2]; replicates averaged) | concentrations associated with cytotoxicity (high dose-points removed) [2] | IC50 [4] [nM] | AUC 9p Notch reporter assay ([2]; 9p dose response) | Notch assay [2] | activity at 10 µM [2, 18] [%] | activity at 25 µM [2, 19] [%] | other results
1 | Cc1ccc2[nH]c3c(c2c1)CCOC31CCN(Cc2ccccc2-c2ccccc2)CC1 [compound B] | 900 | 910 | 1200 | 590 | 1260 | 631 | 300 | + | 60.8 | 65 | 65 | 69.3 | 79.7 | 573.0 | higher than 5 µM | 500 |  |  |  |  | 
2 | C[C@H](NC(=O)Cc1cc(F)cc(F)c1)C(=O)N[C@H](C(=O)OC(C)(C)C)c1ccccc1 [DAPT, reference compound] |  |  |  |  |  |  |  |  |  |  |  |  |  | 495.0 |  |  | 3.01E+02 | comparable |  |  | reporter signal in % of DMSO ([2]; 10 µM, inhibitor controls, Supplemental Fig. 2A): 49%; IC50 [2, 16]: 290 nM and 260 nM; IC50 ([2]; 9p dose response, averaged over replicates, read-out: 9p Notch reporter assay averaged IC50s): 280 nM; 9p Notch reporter assay averaged IC50s (log) ([2]; 9p dose response, log10 of averaged IC50): -6.6; IC50 ([2]; 14-point, unit inferred, replicates averaged, read-out: approxiated IC50s 14p Notch reporter assay): 440 nM; Bottom (Emax) ([2]; 14p Notch assay DR): 42.8 and 41.0; approximated LogIC50 [M] ([2]; 14p Notch assay DR, log10 value, Notch inhibitor controls, no bottom constraint named): -6.3 M; IC50 [2, 17]: 510 nM and 370 nM; AUC 14p Notch reporter assay ([2]; 14p dose response): 4.95E+02; 14p Notch reporter assay averaged IC50s (log) ([2]; 14p dose response, log10 of averaged IC50): -6.4; renilla signal ([2]; 384-well format): not affected
3 | COc1cccc(CNc2ccc(N3CCCCC3)cc2)c1OCc1cccs1 [compound C] |  | 1200 |  |  | 1260 |  | 4300 | + | 50.1 | 66.2 | 66.2 | 65.1 | 61.8 | 584.0 | higher than 12.5 µM | 600 |  | nanomolar potency | 66.2 | 65.1 | HiBiT luciferase signal ([1]; 24 h, 14-point dose-response, Supplemental Fig. 8D,G): dose-dependent decrease of luciferase signal; Hill slope, Notch reporter assay ([2]; 14-point dose-response): -16.2; Bottom (Emax) ([2]; 14p Notch assay DR): 45.4; IC50 ([2]; Homo sapiens, HEK-293T, dose range 50 µM-2.5 nM, Fig. 7E, read-out: IC50, Notch reporter activity): 150 nM
4 | Cc1nn(-c2nc3ccccc3s2)c(O)c1C1OC(=O)c2ccccc21 (centres unmarked) [compound E] | 730 |  |  |  | 794 |  |  | - | 45 | 38 | 38 | 35.2 | 37.1 | 577.0 |  |  |  |  | 38 | 35.2 | IC50 ([2]; 14-point dose-response, Fig. 4, read-out: approximated IC50, Notch reporter assay): 700 nM; Bottom (Emax) ([2]; 14p Notch assay DR): 54.2
5 | CCc1c(C(=O)N(C)Cc2cnn(C(C)C)c2)[nH]c2ccccc12 [compound A] | 3300 | 3400 | 4200 | 2500 | 3980 | 2510 |  | - | 25.3 | 27.7 | 27.7 | 19 | 65.8 | 535.0 |  |  |  |  | 27.7 | 19 | IC50 ([2]; Homo sapiens, HEK-293T, 14-point dose-response, read-out: approximated IC50, Notch reporter assay): 4000 nM
6 | NC(=O)c1c(NC(=O)NCc2cccnc2)sc2c1CCC2 [compound D] | 1000 | 780 | 1300 | 230 | 1580 | 251 |  | - | 44.7 | 47 | 47 | 55.6 | 91 | 273.0 | higher than 12.5 µM |  |  |  | 47 | 55.6 | Hill slope, Notch reporter assay ([2]; 14-point dose-response): -1.7

More lines, main results first:

Row | IC50 [2, 5] [nM] | IC50 [2, 6] [nM] | IC50 [2, 7] [nM] | IC50 [2, 8] [nM] | IC50 [2, 9] [nM] | IC50 [2, 10] [nM] | IC50 [3] [nM] | SMILES | protein stability [1] | activity at 10 µM [2, 11] [%] | activity at 10 µM [2, 12] [%] | activity at 10 µM [2, 13] [%] | activity at 25 µM [2, 14] [%] | activity [2, 15] [%] | AUC Notch ([2]; replicates averaged) | concentrations associated with cytotoxicity (high dose-points removed) [2] | IC50 [4] [nM] | AUC 9p Notch reporter assay ([2]; 9p dose response) | Notch assay [2] | activity at 10 µM [2, 18] [%] | activity at 25 µM [2, 19] [%] | other results
7 |  | 5500 |  |  |  |  | 1700 | CC(C)(C)c1ccc(Oc2ccc(N)cn2)cc1 [CB-103, reference compound] |  |  |  |  |  |  | 546.0 |  | 900 | 3.40E+02 | lower potency; also recorded: lower activity than compound C |  |  | IC50 [2, 17]: 5800 nM; AUC 14p Notch reporter assay ([2]; 14p dose response): 5.46E+02; IC50 [2, 20]: 15000 nM; IC50 [2, 21]: 15800 nM; IC50 [2, 22]: 6310 nM; IC50 [2, 23]: 5100 nM; IC50 [2, 24]: 5010 nM
8 |  | 53 |  |  |  |  |  | CC(C)(C(=O)NCC(F)(F)C(F)(F)F)C(=O)N[C@@H]1C(=O)Nc2ccccc2-c2ccccc21 [RO4929097, reference compound] |  |  |  |  |  |  | 430.0 |  |  | 2.36E+02 | higher potency |  |  | IC50 [2, 16]: 31 nM and 13 nM; IC50 [2, 17]: 45 nM; AUC 14p Notch reporter assay ([2]; 14p dose response): 4.30E+02; IC50 [2, 20]: 22 nM; IC50 [2, 21]: 20 nM; IC50 ([2]; Homo sapiens, HEK-293T, 14p Notch assay DR, Notch inhibitor controls, no bottom constraint named, read-out: approximated IC50): 21.7 nM; IC50 ([2]; Homo sapiens, HEK-293T, 14p Notch assay DR, averaged when replicate measurements were available, read-out: averaged IC50s): 42 nM; IC50 [2, 22]: 63.1 nM; IC50 [2, 23]: 60 nM; IC50 [2, 24]: 50.1 nM

From article PMC13242511, “Disrupting Notch signalling by a small molecule inhibiting dihydroorotate dehydrogenase activity” (Scientific Reports, 2026)
